The conditions of data set [1]: cited from earlier work.
Data set [2] has as its system hERG potassium channel. To be noted: cited from earlier work.
In data set [3] the test system is P450 isoforms. To be noted: cited from earlier work.
The conditions of data set [4]: cited from earlier work. This is another data set of the same source.
For data set [5] the following is noted: cited from earlier work. The source holds these as a separate data set.
Data set [6] addresses human D3 receptor (Homo sapiens, UniProt P35462). The class given is cell-based. The following applies: D3 functional mitogenesis assay.
For data set [7] the following is noted: rat; cited from earlier work.

The structures appear in SMILES notation.

Sequence of human D3 receptor (P35462 whole entry): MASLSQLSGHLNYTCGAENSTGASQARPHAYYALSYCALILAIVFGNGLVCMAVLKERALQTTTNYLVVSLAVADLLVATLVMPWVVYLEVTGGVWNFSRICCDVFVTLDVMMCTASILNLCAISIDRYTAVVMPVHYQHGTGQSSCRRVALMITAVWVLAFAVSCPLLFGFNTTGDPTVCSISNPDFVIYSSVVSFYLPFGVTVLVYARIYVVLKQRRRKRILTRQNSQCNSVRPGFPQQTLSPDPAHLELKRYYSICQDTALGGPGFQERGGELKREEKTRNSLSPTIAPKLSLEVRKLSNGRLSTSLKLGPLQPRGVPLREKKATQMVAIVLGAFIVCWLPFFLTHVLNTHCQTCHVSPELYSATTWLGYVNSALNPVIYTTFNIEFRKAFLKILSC

Turning to `Cc1ncoc1-c1nnc(SCCCN2CC3CC3(c3ccc(C(F)(F)F)cc3F)C2)n1C` (stereo not shown) [Compound 3], in data set [1], the oral bioavailability entry is “excellent”. The “inhibition at the hERG channel” value in data set [2] was “weak inhibition”. Besides, the “inhibition on all the P450 isoforms” value in data set [3] was “weak inhibition”. For the same compound, in data set [4], the CNS penetration result is “good”. As for `CCCN(CC[C@H]1CC[C@H](NC(=O)/C=C/c2ccccc2)CC1)[C@H]1CCc2nc(N)sc2C1` [Compound 10], the aqueous solubility result in data set [5] is on record as “excellent”. With `CCCN(CC[C@H]1CC[C@H](NC(=O)c2ccc3ccccc3c2)CC1)[C@H]1CCc2nc(N)sc2C1` [Compound 11], in data set [5], the aqueous solubility result is given as “excellent”. Regarding `CCCN(CC[C@H]1CC[C@H](NC(=O)c2cccc(-c3noc(C)n3)c2)CC1)[C@H]1CCc2nc(N)sc2C1` [Compound 38], the “functional activity at the D3 receptor” value in data set [6] is listed as “full agonists”. Take `CCCN(CC[C@H]1CC[C@H](NS(=O)(=O)c2cccnc2Cl)CC1)[C@H]1CCc2nc(N)sc2C1` [Compound 52]: in data set [6], the “functional activity at the D3 receptor” value is on record as “full agonists”. On to `Cc1nc(-c2cccc(C(=O)N[C@H]3CC[C@H](CCN4CCc5ccc(S(C)(=O)=O)cc5CC4)CC3)c2)no1` [SB-414796], for which the bioavailability result in data set [7] was “excellent”. Also, the CNS penetration result in data set [4] is given as “good”.

Source of the values: publication PMC3461280 (Bioorganic & medicinal chemistry letters, 2012).
